Reference: publication PMC3038857, “Using Nuclear Receptor Activity to Stratify Hepatocarcinogens” (PLoS ONE, 2011)
Like-named read-outs stand apart in the source and are kept apart here.

Tests used:
Mouse Liver [1] = details: ref ToxRefDB, cited from earlier work
Mouse Liver [2] = details: mouse chronic study, liver, coded 6 / Inf, ref ToxRefDB, cited from earlier work
Mouse Liver [3] = details: mouse chronic study, liver, coded 6 / Inf, ref ToxRefDB, cited from earlier work; remark: listed apart in the source
Rat Liver [4] = details: ref ToxRefDB, cited from earlier work
Rat Liver [5] = details: ref ToxRefDB, cited from earlier work; remark: listed apart in the source
Rat Liver [6] = details: ref ToxRefDB, cited from earlier work; remark: listed apart in the source
[7] = target: T1, PPARG (peroxisome proliferator-activated receptor gamma) (Homo sapiens, UniProt P37231); test: ATG_PPARg_TRANS: Factorial reporter gene assay (HepG2); type: cell-based; details: HepG2
T1 construct: expressed in transfected cells; host or cells: HepG2
T1 sequence (P37231 1-505): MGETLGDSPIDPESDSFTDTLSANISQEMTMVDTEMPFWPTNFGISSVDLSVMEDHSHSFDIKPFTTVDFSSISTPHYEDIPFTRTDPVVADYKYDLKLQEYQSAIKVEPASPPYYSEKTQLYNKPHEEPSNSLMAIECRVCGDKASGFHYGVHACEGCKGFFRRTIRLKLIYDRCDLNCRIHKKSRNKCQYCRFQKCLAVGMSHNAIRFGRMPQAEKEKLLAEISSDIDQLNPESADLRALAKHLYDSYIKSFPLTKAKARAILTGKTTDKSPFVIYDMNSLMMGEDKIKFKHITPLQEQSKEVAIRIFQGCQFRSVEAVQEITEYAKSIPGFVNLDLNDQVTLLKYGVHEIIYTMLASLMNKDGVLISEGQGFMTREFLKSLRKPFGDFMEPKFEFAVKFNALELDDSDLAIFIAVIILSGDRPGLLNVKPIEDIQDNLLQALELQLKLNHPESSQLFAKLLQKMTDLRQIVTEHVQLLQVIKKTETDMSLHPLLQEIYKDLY
Protocol: (§1) A multiple reporter transcription unit (MRTU) library consisting of 48 transcription factor binding sites was transfected into the HepG2 human liver hepatoma cell line. In addition to the cis-acting reporter genes (CIS), a modification of the approach was used to generate a trans-system (TRANS) with a mammalian one-hybrid assay consisting of an additional 25 MRTU library reporting the activity of nuclear receptor super-family members. […] These assays were performed by Attagene Inc. (Morrisville NC) under contract to EPA.
(§2) In addition to the cis-acting reporter genes (CIS), a modification of the approach was used to generate a trans-system (TRANS) with a mammalian one-hybrid assay consisting of an additional 25 MRTU library reporting the activity of nuclear receptor super-family members. […] Chemicals were then tested in the CIS and TRANS assays at seven concentrations starting at the MTC and followed by three-fold serial dilutions. These assays were performed by Attagene Inc. (Morrisville NC) under contract to EPA. Detailed description of the methods, data and analysis methods for this dataset will be presented in a separate publication.

CYP1A1 = test: CLZD_CYP1A1: Change in expression of CYP1A1 (primary human hepatocytes); type: cell-based; details: 24 hr
Protocol: (§3) This is a collection of multiplexed gene expression assays focused on Phase I and II xenobiotic metabolizing enzymes and transporters. Human primary cell cultures were treated with chemicals at 5 concentrations (0.004-40 [drawing 42] M) for 6, 24 and 48 hr. Concentration- and time-response profiles of chemicals were measured by the expression of key nuclear receptor target genes, activities of CYP1A enzymes (EROD), and cell morphology. Fourteen gene targets were monitored by quantitative nuclease protection assay including: six representative cytochrome P-450 genes, four hepatic transporters, three Phase II conjugating enzymes, and one endogenous metabolism gene involved in cholesterol synthesis. The target genes associated with nuclear receptor pathways are as follows: [drawing 43] and [drawing 44] with [drawing 45]; [drawing 46] , [drawing 47] , [drawing 48] , [drawing 49] , [drawing 50] and [drawing 51] with [drawing 52]; [drawing 53] , [drawing 54] , [drawing 55] and [drawing 56] with [drawing 57]; [drawing 58] with [drawing 59]; and [drawing 60] with [drawing 61] . Assays were run in primary human hepatocyte cultures by CellzDirect Invitrogen Inc. (Durham, NC), in collaboration with EPA.
(§4) Multiplexed Gene Expression in Human Primary Hepatocytes: This is a collection of multiplexed gene expression assays focused on Phase I and II metabolic enzymes and transporters. […] Fourteen gene targets were monitored by quantitative nuclease protection assay: six representative cytochrome P450 genes, four hepatic transporters, three Phase II conjugating enzymes, and one endogenous metabolism gene involved in cholesterol synthesis. Cells were exposed at 5 concentrations (0.004-40 µM) for 6, 24 or 48 hr. Gene targets are sentinels for five nuclear receptor signaling pathways: AhR, CAR, PXR, FXR, and PPARα. All gene are associated with nuclear receptor pathways: CYP1A1 and CYP1A2 with AHR; ABCB1, ABCG2, CYP2B6, CYP2C9, CYP2C19 and UGT1A1 with CAR; CYP3A4, GSTA2, SLCO1B1 and SULT2A1 with PXR; HMGCS2 with PPARA; and ABCB11 with FXR. […] Detailed description of the methods, data and analysis methods for this dataset will be presented in a separate publication.

CYP1A2 = test: CLZD_CYP1A2: Change in expression of CYP1A2 (primary human hepatocytes); type: cell-based; details: 24 hr
Protocol: as §3, §4

CYP2B6 = test: CLZD_CYP2B6: Change in expression of CYP2B6 (primary human hepatocytes); type: cell-based; details: 24 hr
Protocol: as §3, §4

CYP3A4 = test: CLZD_CYP3A4: Change in expression of CYP3A4 (primary human hepatocytes); type: cell-based; details: 24 hr
Protocol: as §3, §4

PXR (NR1I2) [8] = target: T2, PXR (NR1I2) (Homo sapiens, UniProt O75469); test: ATG_PXR_TRANS: Factorial reporter gene assay (HepG2); type: cell-based; design: endogenous in cells; host or cells: HepG2; details: HepG2
T2 sequence (O75469 1-434): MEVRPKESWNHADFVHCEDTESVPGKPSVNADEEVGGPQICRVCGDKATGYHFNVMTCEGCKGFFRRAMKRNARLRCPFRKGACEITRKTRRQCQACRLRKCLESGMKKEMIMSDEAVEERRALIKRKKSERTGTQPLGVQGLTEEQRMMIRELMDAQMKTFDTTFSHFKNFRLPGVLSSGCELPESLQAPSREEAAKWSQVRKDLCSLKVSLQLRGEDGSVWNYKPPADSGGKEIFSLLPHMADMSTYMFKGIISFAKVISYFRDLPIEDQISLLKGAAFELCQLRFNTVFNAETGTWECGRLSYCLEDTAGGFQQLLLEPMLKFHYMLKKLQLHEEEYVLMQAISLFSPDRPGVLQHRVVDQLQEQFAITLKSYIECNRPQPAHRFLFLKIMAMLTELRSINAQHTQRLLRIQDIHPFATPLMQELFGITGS
Protocol: as §1, §2

PXR (NR1I2) [9] = target: T2, PXR (NR1I2); test: ATG_PXRE_CIS: Factorial reporter gene assay (HepG2); type: cell-based; design: endogenous in cells; host or cells: HepG2; details: HepG2
Protocol: as §1, §2

PXR (NR1I2) [10] = target: T2, PXR (NR1I2); test: NVS_NR_hPXR: Human PXR Fluormone PXR (SXR) green (cell-free HTS); type: binding
From the text: These are a collection of biochemical assays measuring binding constants and enzyme inhibition values. Chemicals were initially screened at a single concentration in duplicate wells at a concentration of 10 [drawing 63] M for cytochrome P-450 assays and 25 [drawing 64] M for all others. […] These assays were run by Caliper Life Sciences (Hanover, MD) under contract to EPA. Short assay descriptions are available at: http://www.caliperls.com/products/contract-research/in-vitro/.
Cell-free HTS Assays: A collection of biochemical assays measuring binding constants and enzyme inhibition values. […] These assays were run by Caliper Life Sciences (Hanover, MD) under contract to EPA. Short assay descriptions are available at http://www.caliperls.com/products/contract-research/in-vitro/. Values for all endpoints were imported into GeneData Screener (Basel, Switzerland) and normalised to solvent controls from the same plate as the tested compounds and expressed as percent of neutral control. Concentration-response curves were fit in GeneData Screener (Basel, Switzerland) Condeseo module using the Hill equation and AC50 values were determined. […] Detailed description of the methods, data and analysis methods for this dataset are described in a separate publication.

[11] = mouse chronic study, liver, any lesion, coded 6 / Inf, code not explained in the table
[12] = preneoplastic lesion, code not explained in the table
[13] = neoplastic lesion, code not explained in the table
[14] = mouse chronic study, liver, coded 6 / Inf, code not explained in table
[15] = rat chronic study, liver, coded 6 / 0, code not explained in table

In the case of CCCCN(CC)c1c([N+](=O)[O-])cc(C(F)(F)F)cc1[N+](=O)[O-] [Dataset S3 row 26], the CHR_Mouse_Liver_1_AnyLesion (Mouse Liver [1]; [11]) is given as 6, the CHR_Mouse_Liver_2_PreneoplasticLesion (Mouse Liver [2]; [12]) is given as 6 and the CHR_Mouse_Liver_3_NeoplasticLesion (Mouse Liver [3]; [13]) is given as 6.

In the case of CCCCNC(=O)OCC#CI [Dataset S3 row 6], the CHR_Mouse_Liver_1_AnyLesion (Mouse Liver [1]; [11]) is given as 6, the CHR_Mouse_Liver_2_PreneoplasticLesion (Mouse Liver [2]; [12]) is given as 6 and the CHR_Mouse_Liver_3_NeoplasticLesion (Mouse Liver [3]; [13]) is given as 6. The CHR_Rat_Liver_1_AnyLesion (Rat Liver [4]; rat chronic study, liver, any lesion, coded 6 / 0, code not explained in the table) was 6, the CHR_Rat_Liver_2_PreneoplasticLesion (Rat Liver [5]; rat chronic study, liver, preneoplastic lesion, coded 6 / 0, code not explained in the table) was 0 and the CHR_Rat_Liver_3_NeoplasticLesion (Rat Liver [6]; rat chronic study, liver, neoplastic lesion, coded 6 / 0, code not explained in the table) was 0.

For CC(C)(C)C(O)C(Oc1ccc(Cl)cc1)n1cncn1 (stereo not shown) [chemical 305], the CHR_Mouse_Liver_1_AnyLesion (Mouse Liver [1]; [14]) is listed as 6, the CHR_Mouse_Liver_2_PreneoplasticLesion (Mouse Liver [2]; code not explained in table) is listed as 6 and the CHR_Mouse_Liver_3_NeoplasticLesion (Mouse Liver [3]; code not explained in table) is listed as 6. For the same molecule, the CHR_Rat_Liver_1_AnyLesion (Rat Liver [4]; [15]) was 0, the CHR_Rat_Liver_2_PreneoplasticLesion (Rat Liver [5]; [15]) was 0 and the CHR_Rat_Liver_3_NeoplasticLesion (Rat Liver [6]; [15]) was 0.

CC(C)Nc1nc(Cl)nc(NC(C)C)n1 [r260] gave an ATG_PPARg_TRANS [7] of 4.481, a CLZD_CYP1A1_24 (CYP1A1) of 4.988 and a CLZD_CYP1A2_24 (CYP1A2) of 5.254. For the same molecule, the CLZD_CYP2B6_24 (CYP2B6) was 5.165, the CLZD_CYP3A4_24 (CYP3A4) was 5.248 and the CHR_Mouse_Liver_1_AnyLesion (Mouse Liver [1]; mouse, chronic study) was 6. For the same molecule, the CHR_Rat_Liver_1_AnyLesion (Rat Liver [4]; rat, chronic study) was 0, the CHR_Rat_Liver_2_PreneoplasticLesion (Rat Liver [5]; rat, chronic study) was 0 and the CHR_Rat_Liver_3_NeoplasticLesion (Rat Liver [6]; rat, chronic study) was 0. It also gave an ATG_PXR_TRANS (PXR (NR1I2) [8]) of 4.469 and an ATG_PXRE_CIS (PXR (NR1I2) [9]) of 4.569.

In the case of CCC(CC)Nc1c([N+](=O)[O-])cc(C)c(C)c1[N+](=O)[O-] [r238], the ATG_PPARg_TRANS [7] is reported as 4.167, the CLZD_CYP1A1_24 (CYP1A1) is reported as 5.24 and the CLZD_CYP2B6_24 (CYP2B6) is reported as 4.988. For the same molecule, the NVS_NR_hPXR (PXR (NR1I2) [10]) was 5.143, the CHR_Rat_Liver_1_AnyLesion (Rat Liver [4]; rat, chronic study) was 6 and the CHR_Rat_Liver_2_PreneoplasticLesion (Rat Liver [5]; rat, chronic study) was 6. For the same molecule, the CHR_Rat_Liver_3_NeoplasticLesion (Rat Liver [6]; rat, chronic study) was 0, the ATG_PXR_TRANS (PXR (NR1I2) [8]) was 4.432 and the ATG_PXRE_CIS (PXR (NR1I2) [9]) was 4.959.

In the case of CC(C)(C)C(=O)C(Oc1ccc(Cl)cc1)n1cncn1 (stereo not shown) [chemical 304], the CHR_Mouse_Liver_1_AnyLesion (Mouse Liver [1]; [14]) is given as 6, the CHR_Mouse_Liver_2_PreneoplasticLesion (Mouse Liver [2]; code not explained in table) is given as 6 and the CHR_Mouse_Liver_3_NeoplasticLesion (Mouse Liver [3]; code not explained in table) is given as 6. The CHR_Rat_Liver_1_AnyLesion (Rat Liver [4]; [15]) was 6, the CHR_Rat_Liver_2_PreneoplasticLesion (Rat Liver [5]; [15]) was 0 and the CHR_Rat_Liver_3_NeoplasticLesion (Rat Liver [6]; [15]) was 0.

With S=C([S-])NCCNC(=S)[S-].[Zn+2] [row 207] the ATG_PPARg_TRANS [7] was 4.409, the CLZD_CYP1A1_24 (CYP1A1) was 5.214 and the CLZD_CYP1A2_24 (CYP1A2) was 5.296. The NVS_NR_hPXR (PXR (NR1I2) [10]) was 5.59, the CHR_Rat_Liver_1_AnyLesion (Rat Liver [4]; chronic rat study, liver) was 0 and the CHR_Rat_Liver_2_PreneoplasticLesion (Rat Liver [5]; chronic rat study, liver) was 0. The CHR_Rat_Liver_3_NeoplasticLesion (Rat Liver [6]; chronic rat study, liver) was 0 and the ATG_PXRE_CIS (PXR (NR1I2) [9]) was 4.387.
